Experiments:
[1] = system: TLR7/8 signals (THP-1 cells); assay: IL-6 secretion from macrophage cells stimulated with R848 (Example 3); type: cell-based, human; settings: for TLR7/8 signal suppression effects, MHP1 compared with hMHP4: 30.5 μM each; for TLR7/8 signal suppression effects, MHP1 compared with hMHP4 / increase in the amount of IL-6 secretion by R848: FIG. 6; for TLR7/8 signals / increase in the amount of IL-6 secretion by R848: R848 10 μg/ml; for TLR7/8 signals: conclusion from FIG. 6; for increase in the amount of IL-6 secretion by R848: peptide 30.5 μM, 24 hours, ELISA
Description: The influence of the RANKL peptide on the amount of proinflammatory cytokines (IL-6) secreted from macrophage cells by the stimulation of a TLR7/8 ligand (R848) was examined. The specific examination procedures were as follows.
THP-1 cells (human-derived macrophage cell line) were cultured in a DMEM medium (+4% FBS) containing MHP1 or hMHP4 (final concentration: 30.5 μM) and R848 (final concentration: 10 μg/ml) or a DMEM medium (+4% FBS) containing R848 (final concentration: 10 μg/ml) alone for 24 hours by a standard method. After culturing, the concentration of IL-6 in the medium was measured by the ELISA method.

[2] = system: psoriatic symptoms caused by the administration of imiquimod (IMQ); assay: Imiquimod-induced psoriatic symptoms in mice, MHP1 aqueous solution (Example 1); type: in vivo; settings: MHP1 aqueous solution 200 μg/100 μL per mouse applied to back and ear every day; 5% imiquimod; BALB/c female mice; FIGS. 2 to 4
Description: As test animals, BALB/c 6-week-old female mice whose back hair was partially removed were prepared. 5% imiquimod (IMQ) was applied to the hair-removed portion in the back and ear of each mouse (62.5 mg per mouse) (day 0 (0 d)). One day later, (1) an MHP1 aqueous solution (200 μg/100 μL per mouse, n=2) or dH2O (control, n=2) was individually applied to the back and ear, followed by the application of (2) 5% imiquimod (IMQ) (62.5 mg per mouse (day 1 (1 d)). Thereafter, items (1) and (2) above were applied every day for 5 days (day 2 to 6 (2 d to 6 d)).
The degree of white scaling in the back was quantified in accordance with the description of the document (van der Fits, L. et al. Imiquimod-induced psoriasis-like skin inflammation in mice is mediated via the IL-23/IL-17 axis. J. Immunol. 182, 5836-45 (2009)) (evaluation criteria: none (0), mild (1), moderate (2), severe (3), and very severe (4)).
Additionally, the ear thickness was measured.

[3] = system: TLR7/8 signals (MG6 cells); assay: Proinflammatory cytokine secretion from microglial cells stimulated with R848 (Example 2); type: cell-based, mouse; settings: R848 1 μg/ml; for increase in the amount of IL-6 secretion by R848: MHP4 7.6, 15.3 or 30.5 μM, FIG. 5a, 5c; for TLR7/8 signals: conclusion from FIG. 5
Description: The influence of the RANKL peptide on the amount of proinflammatory cytokines (IL-6 and TFNα) secreted from microglial cells by the stimulation of imidazoquinoline resiquimod (R848 produced by Invitrogen), which is a TLR7/8 ligand, was examined. The specific examination procedures were as follows.
MG6 cells (mouse-derived microglial cell line) were cultured in a DMEM medium (+4% FBS) containing MHP1 or MHP4 (final concentration: 7.6, 15.3, or 30.5 μM) and R848 (final concentration: 1 μg/ml) or a DMEM medium (+4% FBS) containing R848 (final concentration: 1 μg/ml) alone for 24 hours by a standard method. After culturing, the concentrations of IL-6 and TNFα in the medium were measured by the ELISA method. In the Examples of the present application, the ELISA method was performed using a kit (Quantikine ELISA Mouse TNF-a or Quantikine ELISA Mouse IL-6, produced by R&D Systems).

NFκB (p65) = NFκB (p65) activation in RAW264.7 cells, TransAM NFkB p65 Kit (Example 5); type: cell-based; settings: MHP1 100 μg/ml, collected after 10 minutes, FIG. 8C
Description: (§1) It has recently been reported that the administration of RANKL protein to mice induces the activation of osteoclasts. Accordingly, the influence of the RANKL peptide on osteoclasts was examined. The specific examination procedures were as follows.
(§2) MHP1 (final concentration: 100 μg/ml) or RANKL protein (final concentration: 10 ng/ml) was added to a medium (DMEM medium (+4% FBS)) in which RAW264.7 cells were cultured, and the cells were collected after 10 minutes and 3 days.
(§3) For the samples collected after 10 minutes, nuclear proteins of the cells were extracted using the Nuclear Extract Kit (Active Motif), and the degree of NFκB (p65) activation was measured by the TransAM NFkB p65 Kit (Active Motif). On the other hand, for the samples collected after 3 days, the mRNA expression levels of NFATc1 and ACP5 were analyzed by real-time RT-PCR.

NFATc1 and ACP5 mRNA = assay: Osteoclast-related mRNA expression in RAW264.7 cells, real-time RT-PCR (Example 5); type: cell-based; settings: MHP1 100 μg/ml, collected after 3 days, FIG. 8A, 8B
Description: as §1, §2, §3

[4] = system: osteoclast precursor cells; assay: Osteoclast differentiation, Osteoclast Culture Kit V-2, TRAP staining (Example 6); type: cell-based; settings: 7 days
Description: Osteoclast Culture Kit V-2 (OSC33, produced by Cosmo Bio Co., Ltd.) was used. According to the manual of the kit, the culturing of osteoclast precursor cells was started in the presence of M-CSF (final concentration: 50 ng/ml) in the A and B groups, and in the presence of M-CSF (final concentration: 50 ng/ml) and MHP1 (final concentration: 30, 50, or 100 μg/ml) in the C and D groups. Thereafter, 24 hours to 7 days after the start of culturing, the A group was cultured in the presence of M-CSF (final concentration: 50 ng/ml), the B group was cultured in the presence of M-CSF (final concentration: 50 ng/ml) and RANKL protein (final concentration: 50 ng/ml), the C group was cultured in the presence of M-CSF (final concentration: 50 ng/ml) and MHP1 (final concentration: 30, 50, or 100 μg/ml), and the D group was cultured in the presence of M-CSF (final concentration: 50 ng/ml), RANKL protein (final concentration: 50 ng/ml), and MHP1 (final concentration: 30, 50, or 100 μg/ml). After culturing, the cells were subjected to TRAP staining and nuclear staining according to a standard method.

MG6 cells = assay: Stability of RANKL peptide: cytokine secretion inhibition in LPS-stimulated MG6 cells after storage (Example 7); type: cell-based, mouse
Description: The stability of the RANKL peptide was examined. The specific examination procedures were as follows.
MHP1 was dissolved in water to a concentration of 2 mg/ml, and stored at 4° C. for 208 days. Thereafter, MG6 cells (mouse-derived microglial cell line) were cultured in a DMEM medium (+4% FBS) containing MHP1 (final concentration: 100 μg/ml) and LPS (final concentration: 2 ng/ml) for 24 hours by a standard method. After culturing, the concentrations of IL-6 and TNFα in the medium were measured by the ELISA method.

[5] = system: psoriatic symptoms caused by the administration of imiquimod (IMQ); assay: Imiquimod-induced psoriatic symptoms in mice, MHP4 hydrophilic petrolatum ointment (Example 8); type: in vivo; settings: MHP4 hydrophilic petrolatum ointment 375 ng/15 mg per mouse applied every day; 5% imiquimod; BALB/c male mice; FIGS. 11 to 14
Description: Specifically, the following procedure was performed according to the dosing schedule shown in FIG. 1 except that the first application of an ointment was performed 6 hours after the first imiquimod application. In Example 1, the RANKL peptide aqueous solution was administered, while a RANKL peptide ointment was administered in this example. As test animals, BALB/c 9-week-old male mice whose back hair was partially removed were prepared. 5% imiquimod (IMQ) was applied to the hair-removed portion in the back and ear of each mouse (62.5 mg per mouse) (day 0 (0 d)). 6 hours later, (1) an MHP4 hydrophilic petrolatum ointment (375 ng (MHP4)/15 mg (hydrophilic petrolatum) per mouse, n=2), hydrophilic petrolatum (control (untreated), n=2), or MCT/BBP (Marduox (tradename) ointment) (15 mg per mouse, n=2) was individually applied to the back and ear. Thereafter, imiquimod and item (1) above were applied every day (from day 1 (1 d)). […] The degree of redness in the back, the degree of white scaling in the back, and the degree of skin thickening in the back were quantified according to the description in the document (van der Fits, L. et al. Imiquimod-induced psoriasis-like skin inflammation in mice is mediated via the IL-23/IL-17 axis. J. Immunol. 182, 5836-45 (2009) (evaluation criteria: none (0), mild (1), moderate (2), severe (3), and very severe (4)). FIGS. 12 to 14 show the results.

Sequence | TLR7/8 signal suppression effects, MHP1 compared with hMHP4 [1] | TLR7/8 signals [1] | increase in the amount of IL-6 secretion by R848 [1] | psoriatic symptoms (back photographs, degree of white scaling, ear thickness) [2] | increase in the amount of IL-6 secretion by R848 ([3]; MHP1 30.5 μM, 24 hours, ELISA) | increase in the amount of TNFα secretion by R848 ([3]; MHP1 30.5 μM, 24 hours, ELISA, FIG. 5b) | TLR7/8 signals [3] | NFκB (p65) activation (NFκB (p65)) | expression of osteoclast-related mRNA (NFATc1, ACP5) (NFATc1 and ACP5 mRNA) | differentiation of osteoclasts when MHP1 was added (without RANKL protein) ([4]; M-CSF 50 ng/ml and MHP1 30, 50 or 100 μg/ml, TRAP and nuclear staining, FIG. 9 (b)) | differentiation of osteoclasts promoted by RANKL ([4]; M-CSF 50 ng/ml, RANKL protein 50 ng/ml and MHP1 30, 50 or 100 μg/ml, TRAP staining, FIG. 9 (a)) | stability (MG6 cells; 2 mg/ml in water, 4° C., 208 days) | proinflammatory cytokine (IL-6, TNFα) secretion-inhibiting effect after long-term storage (MG6 cells; MHP1 2 mg/ml in water stored at 4° C. for 208 days, then 100 μg/ml with LPS 2 ng/ml, MG6 cells, 24 hours, FIG. 10) | psoriasis symptoms (back photographs, degree of redness, white scaling, skin thickening) [5]
LMVYVTKTSIKIPSS (listed as Homo sapiens) [hMHP4] | similar | suppressed the TLR7/8 signals | suppressed |  |  |  |  |  |  |  |  |  |  | 
LMVYVVKTSIKIPSSHNLMKGGSTKNWSGN (listed as Mus musculus) [MHP1] | similar | suppressed the TLR7/8 signals | suppressed | improved psoriatic symptoms | suppressed | suppressed | suppressed the TLR7/8 signals | slightly activated | did not promote | did not occur | inhibited | high | in the same manner as MHP1 before storage | 
LMVYVVKTSIKIPSS (listed as Mus musculus) [MHP4] |  |  |  |  | suppressed |  | suppressed the TLR7/8 signals |  |  |  |  |  |  | improved psoriasis symptoms

Source: patent US11819537B2, “Preventive or therapeutic method for inflammatory skin disease” (Osaka University, priority 2016, dated 2023)
